Our source for the IC50 values is patent publication US9718788B2, “Heteroaryl compounds useful as inhibitors of E1 activating enzymes” (MILLENNIUM PHARMACEUTICALS, INC., priority 2006, dated 2017).

The experiment has as its target T1, recombinant human NAE enzyme (Homo sapiens, UniProt Q8TBC4).
T1 construct: His (N); made in house; host or cells: Sf9 insect cells (baculovirus, Bac-to-Bac)
T1 sequence (Q8TBC4 1-463): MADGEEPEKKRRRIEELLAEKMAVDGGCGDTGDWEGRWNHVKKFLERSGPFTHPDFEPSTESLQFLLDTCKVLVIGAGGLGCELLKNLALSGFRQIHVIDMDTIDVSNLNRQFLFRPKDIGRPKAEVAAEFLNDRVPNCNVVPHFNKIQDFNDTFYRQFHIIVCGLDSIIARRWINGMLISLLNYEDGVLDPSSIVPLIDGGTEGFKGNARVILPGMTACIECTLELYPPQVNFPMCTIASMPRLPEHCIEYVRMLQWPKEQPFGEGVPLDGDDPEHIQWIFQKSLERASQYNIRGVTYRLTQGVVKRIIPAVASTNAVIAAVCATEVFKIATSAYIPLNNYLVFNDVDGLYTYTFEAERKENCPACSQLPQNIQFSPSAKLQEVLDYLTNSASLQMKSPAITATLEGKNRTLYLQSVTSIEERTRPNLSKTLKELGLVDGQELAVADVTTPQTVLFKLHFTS
T1 sequence (Q13564 1-534 partner): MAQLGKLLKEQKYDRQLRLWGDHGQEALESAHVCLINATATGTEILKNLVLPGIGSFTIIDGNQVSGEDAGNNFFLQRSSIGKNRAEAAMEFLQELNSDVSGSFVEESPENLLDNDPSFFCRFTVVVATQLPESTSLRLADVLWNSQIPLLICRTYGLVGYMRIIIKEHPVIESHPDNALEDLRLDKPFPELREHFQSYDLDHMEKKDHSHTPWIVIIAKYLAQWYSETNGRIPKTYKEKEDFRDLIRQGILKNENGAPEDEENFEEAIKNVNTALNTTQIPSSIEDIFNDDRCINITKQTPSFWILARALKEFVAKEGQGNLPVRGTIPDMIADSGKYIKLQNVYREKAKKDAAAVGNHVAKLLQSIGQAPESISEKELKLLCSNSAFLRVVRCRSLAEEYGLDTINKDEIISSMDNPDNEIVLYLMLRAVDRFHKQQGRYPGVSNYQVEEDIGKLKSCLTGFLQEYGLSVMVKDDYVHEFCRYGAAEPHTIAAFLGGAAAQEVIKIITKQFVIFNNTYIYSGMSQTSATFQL
In words: Nedd8-Activating Enzyme (NAE) HTRF Assay. The format is biochemical. The settings on record: 20 μM ATP. As for the experimental part:
Following manufacturer instructions, baculoviruses were generated with the Bac-to-Bac Expression System (Invitrogen) for the following proteins: untagged NAEα (APPBP1; NP_003896.1), N-terminally His-tagged NAEJ (UBE1C; NP_003959.3), untagged SAEα (SAE1; NP_005491.1), N-terminally His-tagged SAE3 (UBA2; NP_005490.1), N-terminally His-tagged murine UAE (UBE1X; NP_033483). NAEα/His-NAEβ and SAEα/His-SAEβ complexes were generated by co-infection of Sf9 cells, which were harvested after 48 hours. His-mUAE was generated by single infection of Sf9 cells and harvested after 72 hours. Expressed proteins were purified by affinity chromatography (Ni-NTA agarose, Qiagen) using standard buffers. Nedd8-Activating Enzyme (NAE) HTRF Assay. The NAE enzymatic reaction totaled 50 μL and contained 50 mM HEPES (pH 7.5), 0.05% BSA, 5 mM MgCl2, 20 μM ATP, 250 μM GSH, 0.01 μM Ubc12-GST, 0.075 μM Nedd8-Flag and 0.20 nM recombinant human NAE enzyme. The enzymatic reaction mixture, with and without compound inhibitor, was incubated at room temperature 24° C. for 105 minutes in a 384-well plate before termination with 25 μL of Stop/Detection buffer (0.1M HEPES pH 7.5, 0.05% Tween20, 20 mM EDTA, 410 mM KF, 0.53 nM Europium-Cryptate labeled monoclonal anti-FLAG M2 antibody (CisBio International) and 8.125 μg/mL PHYCOLINK goat anti-GST allophycocyanin (XL-APC) antibody (Prozyme)). After incubation for 1 hour at 24° C., quantification of the FRET was performed on the Analyst™ HT 96.384 (Molecular Devices).
(In general: In TR-FRET formats the signal depends on donor and acceptor labels being close together.)

Regarding `OC[C@@H]1C[C@@H](Nc2ncnc3[nH]c(-c4cccc5c4CCCC5)nc23)C[C@@H]1O` [Compound I-110, (1S,2S,4R)-2-(hydroxymethyl)-4-{[8-(5,6,7,8-tetrahydronaphthalen-1-yl)-9H-purin-6-yl]-amino}cyclopentanol], the IC50 – broadly, the midpoint of a concentration-inhibition curve – is more than 500 nM (bound given in nM) and less than 10000 nM (bound given in μM). As for `NS(=O)(=O)OC[C@@H]1C[C@@H](Nc2ncnc3[nH]c(-c4ccccc4)cc23)C[C@@H]1O` [Compound I-38, {(1S,2S,4R)-2-hydroxy-4-[(6-phenyl-7H-pyrrolo[2,3-d]pyrimidin-4-yl)-amino]cyclopentyl}methyl sulfamate], where the note is “bound given in nM”, the IC50 was not above 500 nM. Regarding `CC1(C)C[C@H](Nc2cc(N[C@@H]3C[C@H](COS(N)(=O)=O)[C@@H](O)[C@H]3O)ncn2)c2ccccc21` [Compound I-21, {(1R,2R,3S,4R)-4-[(6-{[(1S)-3,3-dimethyl-2,3-dihydro-1H-inden-1-yl]amino}-pyrimidin-4-yl)amino]-2,3-dihydroxycyclopentyl}methyl sulfamate], for the setting “bound given in nM”, the 50% inhibitory concentration (IC50) is not above 500 nM. Turning to `NS(=O)(=O)OC[C@H]1C[C@@H](Nc2ccnc(NCC3CCCCC3)n2)[C@H](O)[C@@H]1O` [Compound I-4, [(1R,2R,3S,4R)-4-({2-[(cyclohexylmethyl)amino]pyrimidin-4-yl}amino)-2,3-dihydroxycyclopentyl]methyl sulfamate], the IC50 is more than 500 nM (bound given in nM) and less than 10000 nM (bound given in μM).

With `CN(c1ncnc2c1nc(-c1ccccc1)n2C)[C@@H]1C[C@@H](COS(N)(=O)=O)[C@@H](O)C1` [Compound I-123, {(1S,2S,4R)-2-hydroxy-4-[methyl(9-methyl-8-phenyl-9H-purin-6-yl)amino]cyclopentyl}-methyl sulfamate], the IC50 by setting is: (bound given in nM) more than 500 nM; (bound given in μM) less than 10000 nM. On to `CO[C@H]1Cc2ccccc2[C@H]1Nc1ncnc(N[C@@H]2C[C@H](COS(N)(=O)=O)[C@@H](O)[C@H]2O)n1` [Compound I-55, {(1R,2R,3S,4R)-2,3-dihydroxy-4-[(4-{[(1R,2S)-2-methoxy-2,3-dihydro-1H-inden-1-yl]amino}-1,3,5-triazin-2-yl)amino]cyclopentyl}methyl sulfamate], for which the IC50 (bound given in nM) was not above 500 nM. Take `NS(=O)(=O)OC[C@@H]1C[C@@H](Oc2ncnc3nc(-c4cnn(Cc5ccccc5)c4)[nH]c23)C[C@@H]1O` [Compound I-129, ((1S,2S,4R)-4-{[8-(1-benzyl-1H-pyrazol-4-yl)-7H-purin-6-yl]oxy}-2-hydroxycyclopentyl)methyl sulfamate]: the IC50 (bound given in nM) is not above 500 nM. As to `NS(=O)(=O)OC[C@@H]1C[C@@H](Nc2ncnc3[nH]c(-c4ccccc4OC(F)(F)F)nc23)C[C@@H]1O` [Compound I-62, [(1S,2S,4R)-2-hydroxy-4-({8-[2-(trifluoromethoxy)phenyl]-9H-purin-6-yl}-amino)cyclopentyl]methyl sulfamate], where the note is “bound given in nM”, the half-inhibitory concentration (IC50) is not above 500 nM. Same read-out and setting: next, `NS(=O)(=O)OC[C@@H]1C[C@@H](Nc2ncnc(N[C@@H]3c4ccccc4CC3(F)F)n2)C[C@@H]1O` [Compound I-147, {(1S,2S,4R)-4-[(4-{[(1R)-2,2-difluoro-2,3-dihydro-1H-inden-1-yl]amino}-1,3,5-triazin-2-yl)amino]-2-hydroxycyclopentyl}methyl sulfamate]: not above 500 nM; `NS(=O)(=O)OC[C@@H]1C[C@@H](Nc2ncnc3[nH]c(-c4ccccc4)nc23)C[C@@H]1O` [Compound I-69, {(1S,2S,4R)-2-hydroxy-4-[(8-phenyl-9H-purin-6-yl)amino]cyclopentyl}methyl sulfamate]: not above 500 nM. On to `NS(=O)(=O)OC[C@H]1C[C@@H](Nc2cc(CCc3ccccc3)ncn2)[C@H](O)[C@@H]1O` [Compound I-86, ((1R,2R,3S,4R)-2,3-dihydroxy-4-{[6-(2-phenylethyl)pyrimidin-4-yl]amino}cyclopentyl)-methyl sulfamate], for which the IC50 by setting is: (bound given in nM) more than 500 nM; (bound given in μM) less than 10000 nM. As for `NS(=O)(=O)OC[C@@H]1C[C@@H](Nc2ncnc3[nH]c(-c4cccc5ccccc45)nc23)C[C@@H]1O` [Compound I-49, ((1S,2S,4R)-2-hydroxy-4-{[8-(1-naphthyl)-9H-purin-6-yl]amino}cyclopentyl)-methyl sulfamate], the IC50 (bound given in nM) is not above 500 nM. The same measure, in the same setting: the figure for `NS(=O)(=O)OC[C@@H]1C[C@@H](N2CCc3c(N[C@H]4CCc5ccccc54)ncnc32)C[C@@H]1O` [Compound I-146, ((1S,2S,4R)-4-{4-[(1S)-2,3-dihydro-1H-inden-1-ylamino]-5,6-dihydro-7H-pyrrolo[2,3-d]pyrimidin-7-yl}-2-hydroxycyclopentyl)methyl sulfamate] is not above 500 nM; for `NS(=O)(=O)OC[C@@H]1C[C@@H](Nc2ncnc3[nH]c(-c4cccc5c4CCCC5)nc23)C[C@@H]1O` [Compound I-126, ((1S,2S,4R)-2-hydroxy-4-{[8-(5,6,7,8-tetrahydronaphthalen-1-yl)-9H-purin-6-yl]amino}cyclopentyl)methyl sulfamate] it is not above 500 nM; for `COc1cccc(OC)c1-c1nc2c(N[C@@H]3C[C@@H](COS(N)(=O)=O)[C@@H](O)C3)ncnc2[nH]1` [Compound I-93, ((1S,2S,4R)-4-{[8-(2,6-dimethoxyphenyl)-9H-purin-6-yl]amino}-2-hydroxycyclopentyl)methyl sulfamate] it is not above 500 nM. In the case of `NS(=O)(=O)OC[C@@H]1C[C@@H](Nc2ncnc3[nH]c(-c4cccc5c4oc4ccccc45)nc23)C[C@@H]1O` [Compound I-39, {(1S,2S,4R)-4-[(8-dibenzo[b,d]furan-4-yl-9H-purin-6-yl)amino]-2-hydroxycyclopentyl}methyl sulfamate], the IC50 (bound given in nM) was not above 500 nM. `NS(=O)(=O)OC[C@@H]1C[C@@H](Oc2cc(OCc3cccc4ccccc34)ncn2)C[C@@H]1O` [Compound I-119, ((1S,2S,4R)-2-hydroxy-4-{[6-(1-naphthylmethoxy)pyrimidin-4-yl]oxy}cyclopentyl)methyl sulfamate]: the IC50 by setting is: (bound given in nM) more than 500 nM; (bound given in μM) less than 10000 nM. `COc1ccccc1-c1nc2c(N[C@@H]3C[C@@H](COS(N)(=O)=O)[C@@H](O)C3)ncnc2[nH]1` [Compound I-133, ((1S,2S,4R)-2-hydroxy-4-{[8-(2-methoxyphenyl)-9H-purin-6-yl]amino}cyclopentyl)methyl sulfamate]: for the setting “bound given in nM”, the IC50 is not above 500 nM.

As to `Cc1c(N[C@H]2CCc3ccccc32)ncnc1O[C@@H]1C[C@@H](COS(N)(=O)=O)[C@@H](O)C1` [Compound I-32, [(1S,2S,4R)-4-({6-[(1S)-2,3-dihydro-1H-inden-1-ylamino]-5-methylpyrimidin-4-yl}oxy)-2-hydroxycyclopentyl]methyl sulfamate], the IC50 (bound given in nM) is not above 500 nM. Take `NS(=O)(=O)OC[C@H]1C[C@@H](Nc2ncnc3[nH]cnc23)[C@H](O)[C@@H]1O` [Compound I-3, [(1R,2R,3S,4R)-2,3-dihydroxy-4-(9H-purin-6-ylamino)cyclopentyl]methyl sulfamate]: the IC50 (bound given in nM) is not above 500 nM. `NS(=O)(=O)OC[C@@H]1C[C@@H](Nc2ncnc3nc(-c4cccc5cccnc45)[nH]c23)C[C@@H]1O` [Compound I-84, {(1S,2S,4R)-2-hydroxy-4-[(8-quinolin-8-yl-7H-purin-6-yl)amino]cyclopentyl}methyl sulfamate]: the concentration for half-maximal inhibition (IC50) (bound given in nM) was not above 500 nM.
